PubChem BioAssay AID248 (DTP/NCI, 2004)
Several values for one entry are separate records, joined by “and”; a condition that tells them apart may be missing. Identical values can stand only once. Toxic doses and inconclusive results are not listed.

System: L1210 leukemia ip in BDF1 mice, survival T/C
Experiment: NCI In Vivo Anticancer Drug Screen. Data for tumor model L1210 Leukemia (intraperitoneal) in B6D2F1 (BDF1) mice
Details: endpoint: mean survival time, higher = longer survival
In short: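 Tumor cells were implanted, animals were treated, and survival was followed. The result divides the treated measurement by the vehicle-control measurement.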

[1] = dose: 100.0 mg/kg/injection, schedule: Q01DX001 (ip), vehicle: saline
[2] = dose: 200.0 mg/kg/injection, schedule: Q01DX001 (ip), vehicle: saline
[3] = dose: 400.0 mg/kg/injection, schedule: Q01DX001 (ip), vehicle: saline
[4] = dose: 100.0 mg/kg/injection, schedule: Q04DX003 (ip), vehicle: Klucel (hydroxypropylcellulose) (HPC)
[5] = dose: 400.0 mg/kg/injection, schedule: Q04DX003 (ip), vehicle: Klucel (hydroxypropylcellulose) (HPC)

Compound: CC(=O)c1c2ccccc2cc2ccccc12
- T/C [1]: 106 % of control
- T/C [2]: 106 % of control
- T/C [3]: 101 % of control

Compound: FC(F)OC(F)(F)C(F)Cl (centres undefined)
- T/C [1]: 89 % of control
- T/C [2]: 89 % of control
- T/C [3]: 97 % of control

Compound: CC(=O)N(C(=O)c1ccccc1)c1ccc(NS(=O)(=O)c2ccc(C)cc2)cc1
- T/C (dose: 100.0 mg/kg/injection, schedule: Q01DX001 (ip), vehicle: Klucel (hydroxypropylcellulose) (HPC)): 91 % of control
- T/C [4]: 94 % of control
- T/C (dose: 200.0 mg/kg/injection, schedule: Q01DX001 (ip), vehicle: Klucel (hydroxypropylcellulose) (HPC)): 100 % of control
- T/C (dose: 400.0 mg/kg/injection, schedule: Q01DX001 (ip), vehicle: Klucel (hydroxypropylcellulose) (HPC)): 100 % of control
- T/C [5]: 90 % of control

Compound: O=NN(CCCl)C(=O)NN1CCCCCC1
- T/C (dose: 15.0 mg/kg/injection, schedule: Q01DX001 (ip), vehicle: carboxymethylcellulose (CMC)): 101 % of control
- T/C (dose: 30.0 mg/kg/injection, schedule: Q01DX001 (ip), vehicle: carboxymethylcellulose (CMC)): 101 % of control

Compound: CC1NC(=O)COC1c1ccccc1 (centres undefined)
- T/C (dose: 25.0 mg/kg/injection, schedule: Q01DX009 (ip), vehicle: Klucel (hydroxypropylcellulose) (HPC)): 101 % of control
- T/C (dose: 50.0 mg/kg/injection, schedule: Q01DX009 (ip), vehicle: Klucel (hydroxypropylcellulose) (HPC)): 95 % of control
- T/C (dose: 100.0 mg/kg/injection, schedule: Q01DX009 (ip), vehicle: Klucel (hydroxypropylcellulose) (HPC)): 101 % of control
- T/C (dose: 200.0 mg/kg/injection, schedule: Q01DX009 (ip), vehicle: Klucel (hydroxypropylcellulose) (HPC)): 96 % of control

Compound: CCOC(=O)CC1(C)OCC(c2ccccc2)O1 (centres undefined)
- T/C (dose: 222.0 mg/kg/injection, schedule: Q01DX Z (ip), vehicle: saline): 106 % of control
- T/C (dose: 333.0 mg/kg/injection, schedule: Q01DX Z (ip), vehicle: saline): 86 % of control
- T/C (dose: 500.0 mg/kg/injection, schedule: Q01DX Z (ip), vehicle: saline): 91 % of control

Compound: Nc1nc2ncc(CCNc3ccc(C(=O)NC(CCC(=O)O)C(=O)O)cc3)nc2c(=O)[nH]1 (centres undefined)
- T/C (dose: 18.75 mg/kg/injection, schedule: Q01DX001 (ip), vehicle: other): 96 % of control
- T/C (dose: 18.75 mg/kg/injection, schedule: Q01DX Z (ip), vehicle: other): 103 % of control
- T/C (dose: 37.5 mg/kg/injection, schedule: Q01DX001 (ip), vehicle: other): 97 % of control
- T/C (dose: 37.5 mg/kg/injection, schedule: Q01DX Z (ip), vehicle: other): 102 % of control
- T/C (dose: 75.0 mg/kg/injection, schedule: Q01DX001 (ip), vehicle: other): 104 % of control
- T/C (dose: 75.0 mg/kg/injection, schedule: Q01DX Z (ip), vehicle: other): 112 % of control
- T/C (dose: 150.0 mg/kg/injection, schedule: Q01DX001 (ip), vehicle: other): 119 % of control

Compound: CC1C(Cl)(Cl)C1(C)/C=C/C1C(C)(C)C1(Cl)Cl (centres undefined)
- T/C (dose: 100.0 mg/kg/injection, schedule: Q01DX001 (ip), vehicle: other): 260 % of control
- T/C [1]: 106 % of control
- T/C (dose: 178.0 mg/kg/injection, schedule: Q01DX001 (ip), vehicle: saline): 101 % of control
- T/C (dose: 200.0 mg/kg/injection, schedule: Q01DX001 (ip), vehicle: other): 117 % of control
- T/C [2]: 108 % of control
- T/C (dose: 267.0 mg/kg/injection, schedule: Q01DX001 (ip), vehicle: saline): 97 % of control
- T/C (dose: 400.0 mg/kg/injection, schedule: Q01DX001 (ip), vehicle: other): 202 % of control
- T/C [3]: 95 % of control and 97 % of control
- T/C (dose: 600.0 mg/kg/injection, schedule: Q01DX001 (ip), vehicle: saline): 88 % of control

Compound: CCC(C)C(NN)C(=O)O (centres undefined)
- T/C (dose: 12.0 mg/kg/injection, schedule: Q01DX Z (ip), vehicle: carboxymethylcellulose (CMC)): 113 % of control
- T/C (dose: 25.0 mg/kg/injection, schedule: Q01DX Z (ip), vehicle: carboxymethylcellulose (CMC)): 112 % of control
- T/C (dose: 50.0 mg/kg/injection, schedule: Q01DX Z (ip), vehicle: carboxymethylcellulose (CMC)): 110 % of control
- T/C (dose: 100.0 mg/kg/injection, schedule: Q01DX Z (ip), vehicle: carboxymethylcellulose (CMC)): 118 % of control
- T/C (dose: 200.0 mg/kg/injection, schedule: Q01DX015 (ip), vehicle: carboxymethylcellulose (CMC)): 104 % of control

Compound: Cc1cc(C)c2c(c1)-c1nc3c(cc1CC2)CCc1c(C)cc(C)cc1-3
- T/C [4]: 100 % of control
- T/C (dose: 200.0 mg/kg/injection, schedule: Q04DX003 (ip), vehicle: Klucel (hydroxypropylcellulose) (HPC)): 95 % of control
- T/C [5]: 97 % of control

Compound: Cc1sc(=S)n(CC(=O)O)c1C
- T/C (dose: 100.0 mg/kg/injection, schedule: Q01DX009 (ip), vehicle: saline with Tween-80): 93 % of control
- T/C (dose: 200.0 mg/kg/injection, schedule: Q01DX009 (ip), vehicle: saline with Tween-80): 93 % of control
- T/C (dose: 400.0 mg/kg/injection, schedule: Q01DX009 (ip), vehicle: saline with Tween-80): 92 % of control

Compound: CC(C)=CCCC(C)CCO (centres undefined)
- T/C [1]: 94 % of control
- T/C [2]: 100 % of control
